The values below come from patent US5667825A (Kellogg Company, priority 1996, dated 1997).

Entries after “also recorded” stand apart in the source; their conditions may differ.

A short description of data set [1]: Oxidative stability of iron fortified cereals in hot room (hexanal, rancid odor, off odor). Conditions: for Off Odor Value / Rancid Odor Value / Hexanal Value: measured at two and four weeks (interval of value not stated); for Hexanal Value: ± 95% confidence interval. It is filed as physicochemical. As to the method:
The feasibility of using other iron sources was also tested. […] The individual tests are discussed in further detail below.
These samples were used for comparative stability and sensory analysis.
In order to test the stability of the iron fortified cereals, the R-T-E cereal samples prepared using four different sources of iron were placed in a hot room and exposed to a temperature of 100° F. over a four week period. Measurements were taken at two and four week intervals.

The test system of data set [2] is Sprague Dawley rats. Description: Rat hemoglobin regeneration method, relative iron bioavailability (modified AOAC). It is filed as in vivo. The method, then:
The relative iron availability of various iron compounds in a ready-to-eat breakfast cereal was tested using a widely accepted method, commonly referred to as the rat hemoglobin regeneration method, (modified AOAC method for assessment of relative iron bioavailability), see Williams, S. ed. Official methods of analysis of the Association of Official Analytical Chemists, 14th ed. Arlington, Va. AOAC, 1984; Fritz, J. C. et al., Collaborative Study of rat hemoglobin repletion test for bioavailability of iron, AOAC 1974, 57: 513-517. The testing for relative bioavailability of the various iron compounds was carried out in a series of separate experiments. In each of these experiments, ferrous sulfate was used as the standard or control compound.
Sprague Dawley rats, individually housed in temperature and light controlled units, were fed an iron deficient diet obtained from Harland Tekland Laboratories for 24 days. After this iron depletion phase, the rats were weighed and blood was drawn to test for baseline hemoglobin concentrations. These anemic animals, with hemoglobin levels between […], were then randomly assigned to the control and test groups. Ferrous sulfate and the iron compounds in the cereal were added at concentrations of 6 and 18 and 24 mg iron/kg to the control and test diets. These diets were then fed to groups of ten animals, ad libitum, for 14 days. Iron levels in the diets, were verified by atomic absorption spectrometry (Bolin et al., J. Assoc. Off. Anal. Chem. 1977, 60: 1170-1174). After the 14 day test period, hemoglobin concentrations were determined for all animals.
The bioavailability of each iron source tested relative to ferrous sulfate, was calculated by comparing gain in hemoglobin with the iron concentration in the diet by the slope ratio procedure (Finney, D. J., Statistical methods in biological assay. 2nd ed. 1964; Amine et L., Biological assessment of available iron in food products, J. Agric. Food Chem. 1974, 22: 470-476.). […]

The conditions of data set [3]: in some diets; cited from earlier work.

On to ferrous sulfate [reference compound], for which, in data set [1] (hot room 100° F.), the “Off Odor Value” is 2.33 ± 0.48, the “Rancid Odor Value” turned out to be 1.22 ± 0.57 and the “Hexanal Value” came out at 2.13 ± 2.02. Moreover, in data set [2] (rat, in vivo, 20160 min), the “Slope Ratio (bioavailability relative to ferrous sulfate)” value was 1.00.
Turning to `O=C([O-])/C=C/C(=O)[O-].[Fe+2]` [Ferrous Fumarate, ferrous fumarate, reference compound], in data set [1] (hot room 100° F.), the “Off Odor Value” was 2.67 ± 0.41, the “Rancid Odor Value” was determined as 2.89 ± 0.62 and the “Hexanal Value” was 2.37 ± 1.00.
For `O=C([O-])CN(CCN(CC(=O)[O-])CC(=O)[O-])CC(=O)[O-].[Fe+3].[Na+]` [Ferric EDTA, sodium ferric ethylenediaminetetraacetic acid complex], the “Stability in continuing stability tests” value in data set [1] (expected in continuing tests) is on record as “expected to improve in stability in comparison to the other ferric samples tested”. In addition, the “Oxidative stability (rancid odor, off odor, hexanal), result in words” value in data set [1] (hot room 100° F., four weeks) was “statistically significant lower level of rancid odor, off odor and hexanal value; also recorded: most stable of the products tested with the lowest hexanal, rancid odor and off odor values”. In addition, in data set [1] (hot room 100° F.), the “Off Odor Value” is on record as 0.78 ± 0.44, the “Rancid Odor Value” came to 0.56 ± 0.43 and the “Hexanal Value” is listed as 0.40 ± 0.22. Besides, the “Slope Value (gain in hemoglobin vs iron concentration in the diet)” value in data set [2] (6, 18 and 24 mg iron/kg diet, 14 days, ± 95% confidence interval) is on record as 0.31 ± 0.03. The “Iron bioavailability / absorption, result in words” value in data set [2] (anemic rats, versus ferrous sulfate and reduced iron) was “absorbed at a rate not significantly different from ferrous sulphate and significantly better than reduced iron; also recorded: superior in bioavailability to reduced iron”. For the same molecule, in data set [3], the “Bioavailability versus FeSO4 complex” value is “two to three times more bioavailable”.
